Results: paper PMC10418939, “Synthesis, ^123I-Radiolabeling Optimization, and Initial Preclinical Evaluation of Novel Urea-Based PSMA Inhibitors with a Tributylstannyl Prosthetic Group in Their Structures” (International Journal of Molecular Sciences, 2023)
Read-outs that look alike come from different tables or passages of the source.

Columns and labels:
[1] = NCr nude mice bearing LNCaP xenografts, cited from earlier work; for accumulation in the liver: 4 h after injection; for accumulation in the kidney: after 4 h
Source text: The uptake of [^123I]PSMA-p-IB in normal organs, except in the salivary gland, gastrointestinal tract, and body, were low. […] This value was correlated with PSMA-p-IB that had been ^123I-labeled, which is non-residualizi ...

[2] = In vivo biodistribution in normal mice; design: activity in the whole gastrointestinal tract (with contents): unit not given here; conditions: female CD1 mice, i.v. tail vein, 80 pmol, 4 h p.i.
Procedure: The mice were sacrificed at 4 h post-injection (p.i.) by cervical dislocation. A side-by-side comparison of the biodistribution of [^123I]PSMA-p-IB and [^177Lu]Lu-PSMA-617 in normal mice is shown in Figure 11. Biodistribution of [^123I]PSMA-p-IB at 4 h p.i. in CD1 mice reflects a low level of accumulation in almost all normal organs, except in the salivary gland, gastrointestinal tract, and the rest of the body. There were significant differences between the uptake of [^123I]PSMA-p-IB and [^177Lu]Lu-PSMA-617 in several normal organs. Low accumulation of both ligands was detected in muscle and bone. However, it was determined that the uptake of [^177Lu]Lu-PSMA-617 in muscle (0.1 ± 0.1 %ID/g) was noticeably lower than that of [^123I]PSMA-p-IB (0.2 ± 0.0 %ID/g). […] The activity of [^123I]PSMA-p-IB in blood was 1.3 ± 0.5 %ID/g. […] The activity in the blood for [^123I]PSMA-p-IB experiment was associated with […] labeled with ^123I, which is non-residualizing and is thought to result in the rapid excretion of radiometabolites. Additionally, this ligand lipophilicity might lead it to bind to proteins in the blood. […] This value was clearly higher than the [^177Lu]Lu-PSMA-617 accumulation in the same organ of 0.1 ± 0.0 %ID/g. This [^123I]PSMA-p-IB accumulation could be due to radioiodine catabolites. The activity in the whole gastrointestinal tract (with contents) and small intestine for [^123I]PSMA-p-IB was 12.4 ± 0.8 and 1.1 ± 0.2 %ID/g, respectively. Meanwhile, the activity of [^177Lu]Lu-PSMA-617 in the whole gastrointestinal tract (with contents) and small intestine was 1.2 ± 0.8 and 0.2 ± 0.1 %ID/g, respectively.
Remarkable results were observed whereby the accumulation of [^123I]PSMA-p-IB (0.9 ± 0.1 %ID/g) in the liver was substantially lower than that of [^177Lu]Lu-PSMA-617 (2.3 ± 0.2 %ID/g).
The biodistribution of [^123I]PSMA-p-IB and [^177Lu]Lu-PSMA-617 in normal mice was evaluated in 8 female CD1 mice (2 groups) of 6 weeks of age with an average weight of 31.8 ± 3.6 g. The mice were housed and cared for under standard conditions prior to use. Four mice were each injected intravenously through the tail vein with 40 kBq (80 pmol) of [^123I]PSMA-p-IB in 100 μL PBS with 10% ethanol. The remaining 4 mice were intravenously (i.v.) injected with 130 kBq (80 pmol) of [^177Lu]Lu-PSMA-617 in 100 μL PBS with 1% BSA per mouse. The mice were sacrificed 4 h after injection. Cervical dislocation was employed to sacrifice the anesthetized mice. The blood, tissues, and organs (salivary gland, lung, liver, spleen, small intestine, kidney, muscle, and bone) were excised, collected, and weighed. The ^123I and ^177Lu activities were simultaneously measured using a gamma-counter. The activity uptake was expressed as the percentage of injected activity per gram of organ (%ID/g).
Figure 11 Biodistribution of [^123I]PSMA-p-IB and […] in CD1 mice 4 h post-injection (p.i.). Data for the gastrointestinal tract (including the contents) and the body are presented as the %ID per whole sample. ns indicates p > 0.05, * indicates p ≤ 0.05, ** indicates p ≤ 0.01, *** indicates p ≤ 0.001 and **** indicates p ≤ 0.0001. The comparison study was performed by unpaired 2-tailed t-tests (95% confidence interval).

Molecule: O=C(O)CC[C@H](NC(=O)N[C@@H](CCCCNCc1ccc([123I])cc1)C(=O)O)C(=O)O [[^123I]MIP-1072]
- accumulation in the liver [1]: 2.17 ± 0.67 %ID/g
- accumulation in the kidney [1]: 35.7 ± 18.7 %ID/g

Molecule: O=C(O)CC[C@H](NC(=O)N[C@@H](CCCCNC(=O)Nc1ccc([123I])cc1)C(=O)O)C(=O)O [[^123I]MIP-1095]
- accumulation in the liver [1]: 7.82 ± 1.01 %ID/g
- accumulation in the kidney [1]: 77.5 ± 16.5 %ID/g

Molecule: [^177Lu]Lu-PSMA-617
- accumulation in bone ([2]; n = 4, gamma counter): 0.6 ± 0.1 %ID/g
- accumulation in salivary glands ([2]; n = 4, gamma counter): 0.1 ± 0.0 %ID/g
- accumulation in the liver ([2]; n = 4, gamma counter): 2.3 ± 0.2 %ID/g
- activity in blood ([2]; n = 4, gamma counter): 0.1 ± 0.0 %ID/g
- activity in small intestine ([2]; n = 4, gamma counter): 0.2 ± 0.1 %ID/g
- uptake in muscle ([2]; n = 4, gamma counter): 0.1 ± 0.1 %ID/g
- uptake in the kidney ([2]; n = 4, gamma counter): 6.1 ± 3.7 %ID/g
- activity in the whole gastrointestinal tract (with contents) ([2]; n = 4, Figure 11 legend: %ID per whole sample): 1.2 ± 0.8
